Reference: publication PMC3256138, “Disease Progression in MRL/lpr Lupus-Prone Mice Is Reduced by NCS 613, a Specific Cyclic Nucleotide Phosphodiesterase Type 4 (PDE4) Inhibitor” (PLoS ONE, 2012)
Like-named read-outs stand apart in the source and are kept apart here.

Columns and labels:
PDE1 = assay: IC50 on purified PDE1 isozyme (calmodulin-activated); type: biochemical, bovine; details: 1 µM cGMP substrate, CaM modulator; mean±s.e.m. of three experiments
Experimental: (§1) PDE1, PDE3, PDE4 and PDE5 were isolated by anion exchange chromatography from bovine aortic smooth muscle cytosolic fraction. PDE2 was isolated from human platelets following the method described in [44]. Purified PDEs were stored as small aliquots at −80°C until use. PDE activity was determined at a substrate concentration of 1 µM cAMP or cGMP in the presence of 10,000 cpm [^3H]-cAMP or -cGMP as tracers. PDE1 activity was assessed at 1 µM cGMP in calmodulin-activated state (18 nM calmodulin with 10 µM CaCl2). PDE2 activity was assessed at 1 µM cAMP in activated state (+5 µM cGMP), and PDE3 and PDE4 activities were assessed at 1 µM cAMP in the presence of 1 mM EGTA. […] PDE5 activity was measured at 1 µM cGMP in the presence of 1 mM of EGTA. […] This concentration of DMSO had no effect when tested in control preparation.

PDE4 [1] = assay: IC50 on purified PDE4 isozyme; type: biochemical, bovine; details: for IC50: 1 µM cAMP substrate, mean±s.e.m. of three experiments
Experimental: as §1

PBLs from MRL/lpr mice = assay: Ex vivo LPS-induced TNFα secretion by PBLs from treated MRL/lpr mice; type: in vivo, mouse; details: PBLs of 14 week-old mice treated i.v. (100 µg pentoxifylline or denbufylline, 30 µg NCS 613); 5 µg/mL LPS, 24 h
Experimental: Blood samples were pooled from groups of seven 14 week-old treated mice. PBLs were purified by density separation (Lympholyte-M, d = 1.0875; Cedarlane, Hornby, Canada), washed three times, and resuspended at 5×10^6 cells/ml in L-alanyl-L-glutamine-enriched RPMI 1640 medium (Cambrex, Verviers, Belgium) containing 10% (v/v) fetal calf serum (Dutscher, Brumath, France), HEPES, gentamycin and β-mercaptoethanol. They were cultured in duplicate using 5×10^5 cells/well in the presence of 5 µg/mL LPS from E. coli. Culture supernatants were collected after 24 h and stored frozen at −20°C. TNFα levels were determined using a double-sandwich ELISA (PharMingen, San Diego, CA; detection limit 30 pg/mL) according to the manufacturer's instructions.

MRL/lpr lupus-prone mice = assay: Treatment of MRL/lpr lupus-prone mice with PDE inhibitors: proteinuria, survival, anti-DNA antibodies; details: for Median survival time / Mice with positive proteinuria: 100 µg i.v. at 5, 7, 9 and 13 weeks; for Mice with positive proteinuria: at 18 weeks of age; for Age at which treated mice started dying / Proteinuria level compared to the control group: i.v. at 5, 7, 9 and 13 weeks; for Age at which treated mice started dying: control 17 weeks; for Proteinuria level compared to the control group: 100 µg pentoxifylline or 30 µg NCS 613
Experimental: All mice were monitored regularly for different clinical and biological parameters over 26 weeks. Measurements of outcome included the evaluation of survival and proteinuria measured on a fresh urine sample. Protein levels were determined using colored strips (Albutix; Bayer Diagnostics, Basingstoke, UK) and scored at values corresponding to 30, 100, 300 and >2000 mg/dL.

PDE2 = biological target: T1, PDE2 (Homo sapiens, UniProt O00408); assay: IC50 on purified PDE2 isozyme (cGMP-activated); type: biochemical; details: 1 µM cAMP substrate, cGMP modulator; mean±s.e.m. of three experiments
T1 construct: PDE2 was isolated from human platelets; from tissue; host or cells: human platelets
T1 sequence (O00408 whole entry): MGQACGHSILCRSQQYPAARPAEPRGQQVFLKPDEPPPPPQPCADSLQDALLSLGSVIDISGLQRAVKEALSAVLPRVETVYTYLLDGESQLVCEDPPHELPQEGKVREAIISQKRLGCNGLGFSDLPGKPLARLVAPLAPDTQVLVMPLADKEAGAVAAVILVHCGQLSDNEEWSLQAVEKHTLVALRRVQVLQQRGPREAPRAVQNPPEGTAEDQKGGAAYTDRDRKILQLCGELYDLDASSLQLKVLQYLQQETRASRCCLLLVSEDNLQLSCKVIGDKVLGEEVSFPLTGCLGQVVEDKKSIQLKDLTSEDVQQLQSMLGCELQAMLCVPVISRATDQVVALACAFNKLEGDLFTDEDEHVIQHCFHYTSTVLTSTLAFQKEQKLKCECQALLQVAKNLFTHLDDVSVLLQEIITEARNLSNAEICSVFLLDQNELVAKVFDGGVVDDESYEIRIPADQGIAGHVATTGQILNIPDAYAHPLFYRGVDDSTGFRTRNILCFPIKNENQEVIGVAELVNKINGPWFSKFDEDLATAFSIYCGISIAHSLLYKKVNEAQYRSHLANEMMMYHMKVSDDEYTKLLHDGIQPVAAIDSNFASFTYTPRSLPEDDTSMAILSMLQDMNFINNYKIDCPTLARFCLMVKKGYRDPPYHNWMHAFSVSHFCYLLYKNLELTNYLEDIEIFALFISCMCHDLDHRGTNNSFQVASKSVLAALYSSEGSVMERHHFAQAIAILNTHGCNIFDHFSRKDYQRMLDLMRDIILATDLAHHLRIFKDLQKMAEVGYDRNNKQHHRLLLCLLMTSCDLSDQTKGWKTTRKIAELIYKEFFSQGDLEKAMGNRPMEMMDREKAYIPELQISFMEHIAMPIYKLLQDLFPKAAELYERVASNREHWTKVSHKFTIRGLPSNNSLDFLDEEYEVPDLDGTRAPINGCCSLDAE
Experimental: as §1

PDE3 = biological target: T2, PDE3 (Bos taurus, UniProt A0A3Q1M1E8); assay: IC50 on purified PDE3 isozyme; type: biochemical, bovine; details: 1 µM cAMP substrate; mean±s.e.m. of three experiments
T2 sequence (A0A3Q1M1E8 1-1126): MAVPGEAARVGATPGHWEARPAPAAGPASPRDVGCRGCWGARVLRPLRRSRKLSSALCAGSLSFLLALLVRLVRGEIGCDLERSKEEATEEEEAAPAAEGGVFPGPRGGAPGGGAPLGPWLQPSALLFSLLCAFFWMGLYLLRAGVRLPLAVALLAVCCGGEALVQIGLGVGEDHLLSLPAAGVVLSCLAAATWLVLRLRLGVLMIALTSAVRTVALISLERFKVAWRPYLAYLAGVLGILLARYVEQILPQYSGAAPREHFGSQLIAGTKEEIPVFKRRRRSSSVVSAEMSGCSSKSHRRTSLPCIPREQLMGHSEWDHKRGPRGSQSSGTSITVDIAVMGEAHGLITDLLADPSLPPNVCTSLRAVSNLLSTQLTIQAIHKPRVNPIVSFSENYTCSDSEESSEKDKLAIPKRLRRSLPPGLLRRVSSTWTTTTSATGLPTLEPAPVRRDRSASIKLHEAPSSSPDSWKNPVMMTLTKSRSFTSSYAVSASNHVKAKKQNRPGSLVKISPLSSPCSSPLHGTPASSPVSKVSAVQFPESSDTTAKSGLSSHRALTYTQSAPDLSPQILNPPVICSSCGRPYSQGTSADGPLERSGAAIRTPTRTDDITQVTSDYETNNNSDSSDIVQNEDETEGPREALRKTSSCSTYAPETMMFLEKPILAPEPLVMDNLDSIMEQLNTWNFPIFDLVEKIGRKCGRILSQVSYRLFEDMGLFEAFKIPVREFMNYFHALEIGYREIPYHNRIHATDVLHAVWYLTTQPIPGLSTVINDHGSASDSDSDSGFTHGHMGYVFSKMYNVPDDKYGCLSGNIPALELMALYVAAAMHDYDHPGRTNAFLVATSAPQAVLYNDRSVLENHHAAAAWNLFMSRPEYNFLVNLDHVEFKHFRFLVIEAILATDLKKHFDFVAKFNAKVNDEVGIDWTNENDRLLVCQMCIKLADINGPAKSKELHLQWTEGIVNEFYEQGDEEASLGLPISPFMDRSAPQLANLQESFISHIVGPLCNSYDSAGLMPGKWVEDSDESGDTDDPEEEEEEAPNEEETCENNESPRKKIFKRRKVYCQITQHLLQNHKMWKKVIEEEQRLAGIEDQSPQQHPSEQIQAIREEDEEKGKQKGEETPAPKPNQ
Experimental: PDE2 was isolated from human platelets following the method described in [44]. Purified PDEs were stored as small aliquots at −80°C until use. PDE activity was determined at a substrate concentration of 1 µM cAMP or cGMP in the presence of 10,000 cpm [^3H]-cAMP or -cGMP as tracers. PDE1 activity was assessed at 1 µM cGMP in calmodulin-activated state (18 nM calmodulin with 10 µM CaCl2). […] This concentration of DMSO had no effect when tested in control preparation.

PDE5 = biological target: T3, PDE5 (Bos taurus, UniProt Q28156); assay: IC50 on purified PDE5 isozyme; type: biochemical, bovine; details: 1 µM cGMP substrate; mean±s.e.m. of three experiments
T3 construct: isolated by anion exchange chromatography from bovine aortic smooth muscle cytosolic fraction; from tissue; host or cells: bovine aortic smooth muscle cytosolic fraction
Experimental: as §1

human recombinant PDE4A = biological target: T4, human recombinant PDE4A (Homo sapiens, UniProt P27815); assay: IC50 on human recombinant PDE4A; type: biochemical
T4 construct: gift of Ted J. Torphy (SmithKline Beecham Pharmaceuticals, King of Prussia, PA, USA)
T4 sequence (P27815 whole entry): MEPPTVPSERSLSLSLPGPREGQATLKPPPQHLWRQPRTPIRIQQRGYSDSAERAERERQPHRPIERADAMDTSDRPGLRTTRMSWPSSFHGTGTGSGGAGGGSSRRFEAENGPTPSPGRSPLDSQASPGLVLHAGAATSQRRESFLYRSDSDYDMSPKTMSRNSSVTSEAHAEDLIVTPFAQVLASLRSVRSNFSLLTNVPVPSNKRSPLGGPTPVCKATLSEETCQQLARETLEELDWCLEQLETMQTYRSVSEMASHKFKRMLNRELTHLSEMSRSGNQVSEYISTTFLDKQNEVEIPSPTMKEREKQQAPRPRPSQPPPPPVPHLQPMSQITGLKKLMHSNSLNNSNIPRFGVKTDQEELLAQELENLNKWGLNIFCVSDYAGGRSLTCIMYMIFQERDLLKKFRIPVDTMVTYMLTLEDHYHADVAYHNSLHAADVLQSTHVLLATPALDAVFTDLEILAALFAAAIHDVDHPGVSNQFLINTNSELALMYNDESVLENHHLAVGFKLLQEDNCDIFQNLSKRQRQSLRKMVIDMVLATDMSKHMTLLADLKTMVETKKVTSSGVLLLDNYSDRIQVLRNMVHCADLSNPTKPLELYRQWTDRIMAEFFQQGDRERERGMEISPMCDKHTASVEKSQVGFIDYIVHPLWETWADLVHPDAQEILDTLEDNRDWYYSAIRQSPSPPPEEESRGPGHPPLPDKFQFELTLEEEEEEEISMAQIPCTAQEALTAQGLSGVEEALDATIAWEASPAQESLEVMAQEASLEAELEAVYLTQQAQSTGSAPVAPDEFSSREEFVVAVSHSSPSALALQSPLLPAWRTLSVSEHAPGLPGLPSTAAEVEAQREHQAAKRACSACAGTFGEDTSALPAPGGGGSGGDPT

human recombinant PDE4B = biological target: T5, human recombinant PDE4B (Homo sapiens, UniProt Q07343); assay: IC50 on human recombinant PDE4B; type: biochemical
T5 construct: gift of Ted J. Torphy (SmithKline Beecham Pharmaceuticals, King of Prussia, PA, USA)
T5 sequence (Q07343 whole entry): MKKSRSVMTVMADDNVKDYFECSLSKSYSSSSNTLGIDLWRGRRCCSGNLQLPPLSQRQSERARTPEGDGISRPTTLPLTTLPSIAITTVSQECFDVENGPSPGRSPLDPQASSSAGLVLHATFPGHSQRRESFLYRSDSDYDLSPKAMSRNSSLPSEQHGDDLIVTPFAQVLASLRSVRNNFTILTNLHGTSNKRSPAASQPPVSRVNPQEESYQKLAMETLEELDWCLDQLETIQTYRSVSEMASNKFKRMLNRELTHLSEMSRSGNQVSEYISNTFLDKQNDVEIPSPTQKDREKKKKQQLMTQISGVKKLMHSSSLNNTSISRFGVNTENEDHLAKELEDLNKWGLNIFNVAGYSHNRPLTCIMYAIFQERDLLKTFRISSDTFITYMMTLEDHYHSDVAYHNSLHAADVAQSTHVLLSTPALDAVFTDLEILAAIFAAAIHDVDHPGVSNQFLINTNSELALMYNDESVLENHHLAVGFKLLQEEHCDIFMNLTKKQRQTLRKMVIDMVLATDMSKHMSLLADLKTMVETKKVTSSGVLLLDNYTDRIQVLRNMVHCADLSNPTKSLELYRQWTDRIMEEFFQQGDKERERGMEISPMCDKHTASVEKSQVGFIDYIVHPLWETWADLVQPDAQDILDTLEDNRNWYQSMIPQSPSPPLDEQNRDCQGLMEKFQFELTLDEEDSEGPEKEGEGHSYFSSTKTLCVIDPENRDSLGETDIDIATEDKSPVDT

human recombinant PDE4C = biological target: T6, human recombinant PDE4C (Homo sapiens, UniProt Q08493); assay: IC50 on human recombinant PDE4C; type: biochemical; details: 1 µM cAMP; with confidence interval
T6 construct: gift of Ted J. Torphy (SmithKline Beecham Pharmaceuticals, King of Prussia, PA, USA)
T6 sequence (Q08493 whole entry): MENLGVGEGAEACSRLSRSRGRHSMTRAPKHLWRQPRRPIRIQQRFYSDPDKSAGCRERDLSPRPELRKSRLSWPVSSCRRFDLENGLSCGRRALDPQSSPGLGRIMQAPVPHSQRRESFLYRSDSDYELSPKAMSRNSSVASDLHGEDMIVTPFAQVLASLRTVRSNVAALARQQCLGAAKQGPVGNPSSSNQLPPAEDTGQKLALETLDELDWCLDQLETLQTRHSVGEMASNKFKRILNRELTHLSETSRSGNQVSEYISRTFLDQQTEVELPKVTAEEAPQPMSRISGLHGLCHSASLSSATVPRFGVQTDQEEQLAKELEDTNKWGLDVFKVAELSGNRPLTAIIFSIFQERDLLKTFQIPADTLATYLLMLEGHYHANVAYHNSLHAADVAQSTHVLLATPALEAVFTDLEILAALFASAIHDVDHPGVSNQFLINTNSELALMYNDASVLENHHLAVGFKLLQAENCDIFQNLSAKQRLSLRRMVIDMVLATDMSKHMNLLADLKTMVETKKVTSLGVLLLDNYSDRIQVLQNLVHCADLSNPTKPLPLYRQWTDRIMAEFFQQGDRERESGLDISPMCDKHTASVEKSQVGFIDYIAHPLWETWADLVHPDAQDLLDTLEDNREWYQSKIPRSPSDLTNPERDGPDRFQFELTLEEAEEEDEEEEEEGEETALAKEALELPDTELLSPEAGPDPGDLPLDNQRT

human recombinant PDE4D = biological target: T7, human recombinant PDE4D (Homo sapiens, UniProt Q08499); assay: IC50 on human recombinant PDE4D; type: biochemical
T7 construct: gift of Ted J. Torphy (SmithKline Beecham Pharmaceuticals, King of Prussia, PA, USA)
T7 sequence (Q08499 whole entry): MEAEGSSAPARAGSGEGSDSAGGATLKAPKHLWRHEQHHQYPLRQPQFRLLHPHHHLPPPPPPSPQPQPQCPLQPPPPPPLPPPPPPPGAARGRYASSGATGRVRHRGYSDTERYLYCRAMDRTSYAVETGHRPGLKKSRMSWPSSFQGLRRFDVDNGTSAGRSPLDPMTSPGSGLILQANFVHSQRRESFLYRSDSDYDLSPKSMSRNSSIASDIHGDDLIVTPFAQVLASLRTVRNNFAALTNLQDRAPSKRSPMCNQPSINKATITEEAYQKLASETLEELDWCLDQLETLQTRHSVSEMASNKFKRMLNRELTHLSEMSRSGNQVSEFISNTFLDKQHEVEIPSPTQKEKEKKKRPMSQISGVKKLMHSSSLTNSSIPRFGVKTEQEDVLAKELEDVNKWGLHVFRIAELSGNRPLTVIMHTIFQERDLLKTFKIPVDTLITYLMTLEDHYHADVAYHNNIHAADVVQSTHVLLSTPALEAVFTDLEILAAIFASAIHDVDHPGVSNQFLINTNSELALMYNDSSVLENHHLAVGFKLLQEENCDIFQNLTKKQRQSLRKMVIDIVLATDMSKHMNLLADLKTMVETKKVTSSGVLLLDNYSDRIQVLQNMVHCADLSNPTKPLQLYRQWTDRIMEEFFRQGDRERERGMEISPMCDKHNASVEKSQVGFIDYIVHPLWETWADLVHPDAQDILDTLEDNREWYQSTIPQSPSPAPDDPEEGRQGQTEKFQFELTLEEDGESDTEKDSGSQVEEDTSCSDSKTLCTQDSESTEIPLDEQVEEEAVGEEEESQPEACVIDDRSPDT

[2] = biological target: High Affinity Rolipram Binding Site (HARBS); assay: 3H-rolipram binding assay on rat brain membranes; details: rat brain membrane, 4 nM 3H-rolipram; read-out: Ki toward 3H-rolipram binding (HARBS)
Experimental: The assay was done in 50 mM N-Tris hydroxymethyl methyl-2-aminoethane sulfonic acid/NaOH buffer, pH 7.6, containing 10 mM MgCl2, 0.1 M NaCl and 100 µM 5′AMP. […] Binding assays were started by the addition of 100 µL of rat brain membrane (0.9 mg protein/mL) to the reaction mixture and conducted at 23°C for 1 h under agitation and stopped by the addition of 3 mL of ice-cold reaction buffer and rapid vacuum filtration through Whatman GF/B filters that have been soaked in 0.3% (v/v) polyethylenimine. Filters were washed twice (3 ml of ice-cold reaction buffer without 5′AMP), dried and counted by liquid scintillation. […] Ki and confidence interval values of binding studies were determined by using one site fit Ki GraphPad Prism5 analysis.

PBLs from SLE patients = assay: TNFα secretion by PBLs from SLE patients; type: cell-based, human; details: for Effect on LPS-induced TNFα production: 5 µg/mL LPS, 24 h
Experimental: PBLs were isolated by centrifugation on Ficoll-Histopaque (Sigma-Aldrich) and cultured as described above using 5×10^5 cells/well. […] Culture supernatants were collected 24 h later and stored frozen at −20°C before TNFα level determination, as described above.

[3] = Solubility in injection vehicle PBS-10% ethanol; type: physicochemical; details: at 100 µg/100 µL
PDE4 [4] = test system: PDE4; design: method as in PMID 9191951; details: text value with reference; cited from earlier work
human PBLs = test system: human PBLs; design: method as in PMID 10640302; details: read-out: IC50 LPS-induced TNFα secretion by human PBLs; cited from earlier work
acid gastric secretion = test system: acid gastric secretion; design: method as in PMID 10640302; details: cited from earlier work
[5] = 1 µM cAMP, with confidence interval

With `CCCCn1c(=O)c2c(ncn2CC(C)=O)n(CCCC)c1=O` [Denbufylline, denbufylline] as the molecule, how does the IC50 (PDE1) read?
Its IC50 is 133000 ± 11000 nM.

What about the IC50 (PDE4 [1]) of the same molecule?
Its IC50 is 760 ± 50 nM.

What about the “Inhibition rate of LPS-induced TNFα secretion” value (“Inhibition rate” for short) (PBLs from MRL/lpr mice) of the same molecule?
Its value is 70%.

What about the Median survival time (MRL/lpr lupus-prone mice) of the same molecule?
Its Median survival time is 26.5 weeks.

And the “Mice with positive proteinuria” value (MRL/lpr lupus-prone mice)?
The value was “around 50%”.

What about the “Age at which treated mice started dying” value (MRL/lpr lupus-prone mice) of the same molecule?
Its value is 15 weeks.

For `CNc1nc(C(F)(F)F)nc2c1ncn2Cc1ccccc1F` [NCS 613], which IC50 (PDE1) is on record?
Its IC50 is 39000 ± 2000 nM.

What about the IC50 (PDE2) of the same molecule?
The IC50 was 24000 ± 3000 nM.

What about the IC50 (PDE3) of the same molecule?
Its IC50 is over 300000 nM.

What about the “PDE4 selectivity relatively to PDE1” value (PDE4 [1]) of the same molecule?
The value was 930 fold.

What about the “PDE4 selectivity relatively to PDE5” value (PDE4 [1]) of the same molecule?
The value was 112 fold.

What about the IC50 (PDE4 [1]) of the same molecule?
Its IC50 is 42 ± 3 nM.

And the PDE5/PDE4 ratio (PDE4 [1]; ratio of IC50 values PDE5/PDE4)?
Its PDE5/PDE4 ratio is 111.9.

What about the IC50 (PDE5) of the same molecule?
The IC50 was 4700 ± 100 nM.

What about the IC50 (human recombinant PDE4A) of the same molecule?
Its IC50 is 44 nM.

What about the IC50 (human recombinant PDE4A; [5]) of the same molecule?
The IC50 was 43.6 nM.

And the IC50 (human recombinant PDE4B)?
Its IC50 is 48 nM.

What about the IC50 (human recombinant PDE4B; [5]) of the same molecule?
Its IC50 is 48.1 nM.

What about the IC50 (human recombinant PDE4C) of the same molecule?
The IC50 was 1.4 nM.

And the IC50 (human recombinant PDE4D)?
The IC50 was 14 nM.

And the IC50 (human recombinant PDE4D; [5])?
Its IC50 is 14.4 nM.

And the Ki [2]?
The Ki was 148 nM.

What about the “Inhibition rate” value (PBLs from MRL/lpr mice) of the same molecule?
Its value is 54%.

And the “Decrease of basal TNFα secretion level” value (PBLs from SLE patients; 10 µM, no LPS, cells from patient 2)?
Its value is 67%.

And the “Effect on LPS-induced TNFα production” value (PBLs from SLE patients; patient SLE1, 0.1 µM)?
The value was “No effect”.

And the “Effect on LPS-induced TNFα production” value (PBLs from SLE patients; patient SLE1, 1 µM)?
Its value is “significantly suppressed”.

What about the “Effect on LPS-induced TNFα production” value (PBLs from SLE patients; patient SLE1, 10 µM) of the same molecule?
Its value is “significantly suppressed”.

And the “Solubility in PBS-10% ethanol” value [3]?
The value was “not soluble”.

What about the IC50 (PDE4 [4]) of the same molecule?
Its IC50 is 42 nM.

What about the IC50 (human PBLs) of the same molecule?
Its IC50 is 18 nM.

And the “Induction of acid gastric secretion” value (acid gastric secretion)?
The value was “does not induce”.

And the “Age of the first mouse that developed proteinuria” value (MRL/lpr lupus-prone mice; 30 µg i.v. at 5, 7, 9 and 13 weeks)?
Its value is 18 week-old.

What about the “Effect on survival of MRL/lpr mice” value (MRL/lpr lupus-prone mice; 30 µg i.v. at 5, 7, 9 and 13 weeks, P = 0.005) of the same molecule?
The value was “significantly increased”.

What about the Mice still alive (MRL/lpr lupus-prone mice; at 31 weeks, 30 µg i.v. at 5, 7, 9 and 13 weeks) of the same molecule?
The Mice still alive was 50%.

And the “Proteinuria level compared to the control group” value (MRL/lpr lupus-prone mice)?
Its value is “significantly lower”.

And the “Age at which treated mice started dying” value (MRL/lpr lupus-prone mice)?
The value was 26 weeks.

Which IC50 (PDE1) does the source give for `CC(=O)CCCCn1c(=O)c2c(ncn2C)n(C)c1=O` [Pentoxifylline, pentoxifylline] here?
The IC50 was 236000 ± 20000 nM.

And the IC50 (PDE2)?
The IC50 was 119000 ± 10000 nM.

And the IC50 (PDE4 [1])?
Its IC50 is 135000 ± 11000 nM.

What about the IC50 (PDE5) of the same molecule?
Its IC50 is 74000 ± 6000 nM.

What about the “Inhibition rate” value (PBLs from MRL/lpr mice) of the same molecule?
Its value is 51%.

What about the Median survival time (MRL/lpr lupus-prone mice) of the same molecule?
The Median survival time was 27.5 weeks.

And the “Mice with positive proteinuria” value (MRL/lpr lupus-prone mice)?
The value was “around 50%”.

What about the “Proteinuria level compared to the control group” value (MRL/lpr lupus-prone mice) of the same molecule?
The value was “significantly lower”.

And the “Age at which treated mice started dying” value (MRL/lpr lupus-prone mice)?
The value was 22 weeks.
